Activity calls are given as the source filed them. The calls are words filed in the database; no cut-off is given here.
How the values were obtained:
[1] = target: T1, Neurotensin receptor type 1 (Homo sapiens, UniProt P30989); experiment: Antagonist activity at human NTS1 receptor expressed in CHOK1 cells assessed as inhibition of intracellular calcium elevation pretreated 30 mins before with SR-48692 by FLIPR assay; assay type: functional, cell-based, CHO-K1
[2] = target: T1, Neurotensin receptor type 1; experiment: Displacement of [3H]neurotensin from human NTS1 receptor expressed in CHOK1 cells after 60 mins by beta plate liquid scintillation counter; assay type: cell-based

T1 sequence (P30989 whole entry): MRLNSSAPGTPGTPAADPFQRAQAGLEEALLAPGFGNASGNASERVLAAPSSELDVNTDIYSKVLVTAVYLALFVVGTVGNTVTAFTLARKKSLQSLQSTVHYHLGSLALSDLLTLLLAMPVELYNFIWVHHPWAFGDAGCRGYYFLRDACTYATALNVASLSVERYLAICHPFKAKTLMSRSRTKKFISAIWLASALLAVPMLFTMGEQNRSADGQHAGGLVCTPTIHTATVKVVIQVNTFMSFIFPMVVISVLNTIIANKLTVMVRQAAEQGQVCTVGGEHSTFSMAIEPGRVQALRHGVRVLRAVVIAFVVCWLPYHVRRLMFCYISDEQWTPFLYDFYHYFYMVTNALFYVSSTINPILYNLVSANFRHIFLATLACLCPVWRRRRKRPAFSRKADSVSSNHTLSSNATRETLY

Row | IC50 [1] [nM] | Activity ([2]; CHO-K1) | Ki [2] [nM] | Compound
1 | 3.79 | inactive | – | CC(C)CC(NC(=O)OCC1c2ccccc2-c2ccccc21)C(=O)O (centres undefined)
2 | 3.76 | – | 545 | CC(C)C[C@@H](NC(=O)Cn1ccc2cc(NS(=O)(=O)c3cccc4cccnc34)ccc21)C(=O)O
